Experimental data published in patent publication US12180193B2, “Accelerating fibrosarcoma protein degrading compounds and associated methods of use” (Arvinas Operations, Inc., priority 2020, dated 2024).
Where two headings read alike, the source gives them in different places.

Key:
BRAF V600E = biological target: T1, BRAF V600E (Homo sapiens, UniProt P15056, V600E); assay: Cellular assay of target protein degradation, T-Rex 293 cells stably transfected with HA-BRAF_V600E (HA immunofluorescence, high content imaging); type: cell-based
T1 construct: expressed in transfected cells
Outline: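 HA immunofluorescence on fixed cells, imaged by high-content reader, measured loss of HA-BRAF V600E in stably transfected T-Rex 293 cells induced with 1 ng/mL doxycycline. Compounds were applied for 24 h at 37 °C (final 0.1 nM–1 μM, 0.1% DMSO); DC50 and Dmax (% of control) were reported.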

BRAF G466V = biological target: T2, BRAF G466V (Homo sapiens, UniProt P15056, G466V); assay: Cellular assay of target protein degradation, T-Rex 293 cells stably transfected with HA-BRAF G466V (HA immunofluorescence, high content imaging); type: cell-based
T2 construct: expressed in transfected cells
Outline: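 HA-BRAF G466V levels were read by HA immunofluorescence and high-content imaging after 24 h compound exposure (final 30 nM–3 pM, 0.1% DMSO, 37 °C). Expression was induced with 0.75 ng/mL doxycycline. Outputs: half-maximal degradation concentration (DC50) and maximal degradation (Dmax) relative to control.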

[1] = half maximal degradation, T-Rex 293 HA-BRAF V600E; read-out: BRaf V600E DC50
[2] = maximum degradation observed, T-Rex 293 HA-BRAF V600E
[3] = half maximal degradation, T-Rex 293 HA-BRAF G466V; read-out: BRaf G466V DC50
[4] = maximum degradation observed, T-Rex 293 HA-BRAF G466V

T2 sequence (P15056 whole entry G466V): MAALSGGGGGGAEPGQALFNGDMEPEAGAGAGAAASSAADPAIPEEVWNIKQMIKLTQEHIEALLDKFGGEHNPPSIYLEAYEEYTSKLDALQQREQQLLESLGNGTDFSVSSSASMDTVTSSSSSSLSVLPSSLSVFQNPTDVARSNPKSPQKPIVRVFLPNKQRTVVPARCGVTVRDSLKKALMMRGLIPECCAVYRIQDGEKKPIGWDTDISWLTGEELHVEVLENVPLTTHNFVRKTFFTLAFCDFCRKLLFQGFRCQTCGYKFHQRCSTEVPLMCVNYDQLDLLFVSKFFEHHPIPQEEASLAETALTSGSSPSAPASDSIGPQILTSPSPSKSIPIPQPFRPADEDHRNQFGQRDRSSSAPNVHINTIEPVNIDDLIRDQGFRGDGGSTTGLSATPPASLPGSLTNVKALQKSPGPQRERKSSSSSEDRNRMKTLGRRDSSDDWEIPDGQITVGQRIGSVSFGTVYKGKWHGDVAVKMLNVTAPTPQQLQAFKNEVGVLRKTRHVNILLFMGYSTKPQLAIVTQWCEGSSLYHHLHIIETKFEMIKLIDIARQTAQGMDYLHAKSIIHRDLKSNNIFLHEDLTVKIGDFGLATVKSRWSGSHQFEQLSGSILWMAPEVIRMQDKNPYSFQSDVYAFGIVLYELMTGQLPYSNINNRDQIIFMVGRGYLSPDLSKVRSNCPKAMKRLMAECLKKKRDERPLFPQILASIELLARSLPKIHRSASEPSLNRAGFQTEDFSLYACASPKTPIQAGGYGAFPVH
T1 sequence (P15056 whole entry V600E): as the sequence (P15056 whole entry G466V) above, with V466G, V600E counted along it

Structure (SMILES)	DC50 (BRAF V600E; [1])	Dmax (BRAF V600E; [2])	DC50 (BRAF G466V; [3])	Dmax (BRAF G466V; [4])	DC50 (BRAF V600E; read-out: BRaf V600E DC50; half maximal degradation, T-Rex 293 HA-BRAF V600E)	DC50 (BRAF G466V; read-out: BRaf G466V DC50; half maximal degradation, T-Rex 293 HA-BRAF G466V)
O=C1CCC(NC(=O)c2ccc(N3CCC(CN4CC5(C4)CN(c4ccc(-c6cnc7[nH]cc(C(=O)c8c(F)ccc(NS(=O)(=O)N9CC[C@@H](F)C9)c8F)c7c6)cc4)C5)CC3)cn2)C(=O)N1 (stereo partly drawn) [Compound 354, 5-(4-{[6-(4-{3-[2,6-difluoro-3-({[(3R)-3-fluoropyrrolidin-1-yl]sulfonyl}amino)benzoyl]-1H-pyrrolo[2,3-b]pyridin-5-yl}phenyl)-2,6-diazaspiro[3.3]heptan-2-yl]methyl}piperidin-1-yl)-N-(2,6-dioxopiperidin-3-yl)pyridine-2-carboxamide]	5 to 50 nM	< 35%	1 to 10 nM	< 35%		
O=C1CC[C@H](NC(=O)c2ccc(CCCN3CC4(C3)CN(c3ccc(-c5cnc6[nH]cc(C(=O)c7c(F)ccc(NS(=O)(=O)N8CC[C@@H](F)C8)c7F)c6c5)cc3)C4)cc2F)C(=O)N1 [Compound 355, 4-{3-[6-(4-{3-[2,6-difluoro-3-({[(3R)-3-fluoropyrrolidin-1-yl]sulfonyl}amino)benzoyl]-1H-pyrrolo[2,3-b]pyridin-5-yl}phenyl)-2,6-diazaspiro[3.3]heptan-2-yl]propyl}-N-[(3S)-2,6-dioxopiperidin-3-yl]-2-fluorobenzamide]	50 to 500 nM	35 to 70%	> 30 nM			
O=C1CCC(NC(=O)c2ccc(CCCN3CC4(C3)CN(c3ccc(-c5cnc6[nH]cc(C(=O)c7c(F)ccc(NS(=O)(=O)N8CC[C@@H](F)C8)c7F)c6c5)cc3)C4)cc2F)C(=O)N1 (stereo partly drawn) [Compound 356, 4-{3-[6-(4-{3-[2,6-difluoro-3-({[(3R)-3-fluoropyrrolidin-1-yl]sulfonyl}amino)benzoyl]-1H-pyrrolo[2,3-b]pyridin-5-yl}phenyl)-2,6-diazaspiro[3.3]heptan-2-yl]propyl}-N-(2,6-dioxopiperidin-3-yl)-2-fluorobenzamide]	> 500 nM		> 30 nM			
COc1cc(N2CCC(CN3CCN(c4ccc(-c5cnc6[nH]cc(C(=O)c7c(F)ccc(NS(=O)(=O)N8CC[C@@H](F)C8)c7F)c6c5)cc4)CC3)CC2)ccc1C(=O)N[C@H]1CCC(=O)NC1=O [Compound 357, 4-(4-{[4-(4-{3-[2,6-difluoro-3-({[(3R)-3-fluoropyrrolidin-1-yl]sulfonyl}amino)benzoyl]-1H-pyrrolo[2,3-b]pyridin-5-yl}phenyl)piperazin-1-yl]methyl}piperidin-1-yl)-N-[(3S)-2,6-dioxopiperidin-3-yl]-2-methoxybenzamide]	5 to 50 nM	35 to 70%	1 to 10 nM	> 70%		
COc1cc(N2CCC(CN3CCN(c4ccc(-c5cnc6[nH]cc(C(=O)c7c(F)ccc(NS(=O)(=O)N8CC[C@@H](F)C8)c7F)c6c5)cc4)CC3)CC2)ccc1C(=O)NC1CCC(=O)NC1=O (stereo partly drawn) [Compound 358, 4-(4-{[4-(4-{3-[2,6-difluoro-3-({[(3R)-3-fluoropyrrolidin-1-yl]sulfonyl}amino)benzoyl]-1H-pyrrolo[2,3-b]pyridin-5-yl}phenyl)piperazin-1-yl]methyl}piperidin-1-yl)-N-(2,6-dioxopiperidin-3-yl)-2-methoxybenzamide]	5 to 50 nM	35 to 70%	1 to 10 nM	> 70%		
COc1cc(N2CCN(CC3CCN(c4ccc(-c5cnc6[nH]cc(C(=O)c7c(F)ccc(NS(=O)(=O)N8CC[C@@H](F)C8)c7F)c6c5)cc4)CC3)CC2)ccc1C(=O)N[C@H]1CCC(=O)NC1=O [Compound 359, 4-(4-{[1-(4-{3-[2,6-difluoro-3-({[(3R)-3-fluoropyrrolidin-1-yl]sulfonyl}amino)benzoyl]-1H-pyrrolo[2,3-b]pyridin-5-yl}phenyl)piperidin-4-yl]methyl}piperazin-1-yl)-N-[(3S)-2,6-dioxopiperidin-3-yl]-2-methoxybenzamide]	5 to 50 nM	35 to 70%	1 to 10 nM	> 70%		
COc1cc(N2CCN(CC3CCN(c4ccc(-c5cnc6[nH]cc(C(=O)c7c(F)ccc(NS(=O)(=O)N8CC[C@@H](F)C8)c7F)c6c5)cc4)CC3)CC2)ccc1C(=O)NC1CCC(=O)NC1=O (stereo partly drawn) [Compound 360, 4-(4-{[1-(4-{3-[2,6-difluoro-3-({[(3R)-3-fluoropyrrolidin-1-yl]sulfonyl}amino)benzoyl]-1H-pyrrolo[2,3-b]pyridin-5-yl}phenyl)piperidin-4-yl]methyl}piperazin-1-yl)-N-(2,6-dioxopiperidin-3-yl)-2-methoxybenzamide]	< 5 nM	< 35%	1 to 10 nM	> 70%		
COc1cc(N2CC3(CN(CCc4ccc(-c5cnc6[nH]cc(C(=O)c7c(F)ccc(NS(=O)(=O)N8CC[C@@H](F)C8)c7F)c6c5)cc4)C3)C2)ccc1C(=O)N[C@H]1CCC(=O)NC1=O [Compound 361, 4-{6-[2-(4-{3-[2,6-difluoro-3-({[(3R)-3-fluoropyrrolidin-1-yl]sulfonyl}amino)benzoyl]-1H-pyrrolo[2,3-b]pyridin-5-yl}phenyl)ethyl]-2,6-diazaspiro[3.3]heptan-2-yl}-N-[(3S)-2,6-dioxopiperidin-3-yl]-2-methoxybenzamide]	5 to 50 nM	35 to 70%	1 to 10 nM	> 70%		
COc1cc(N2CC3(CN(CCc4ccc(-c5cnc6[nH]cc(C(=O)c7c(F)ccc(NS(=O)(=O)N8CC[C@@H](F)C8)c7F)c6c5)cc4)C3)C2)ccc1C(=O)NC1CCC(=O)NC1=O (stereo partly drawn) [Compound 362, 4-{6-[2-(4-{3-[2,6-difluoro-3-({[(3R)-3-fluoropyrrolidin-1-yl]sulfonyl}amino)benzoyl]-1H-pyrrolo[2,3-b]pyridin-5-yl}phenyl)ethyl]-2,6-diazaspiro[3.3]heptan-2-yl}-N-(2,6-dioxopiperidin-3-yl)-2-methoxybenzamide]	5 to 50 nM	35 to 70%	1 to 10 nM	> 70%		
Nc1ccc(F)c(C(=O)c2c[nH]c3ncc(-c4ccc(N5CCC(CN6CC7(C6)CN(c6ccc(C(=O)N[C@H]8CCC(=O)NC8=O)c(F)c6)C7)CC5)cc4)cc23)c1F [Compound 363, 4-{6-[(1-{4-[3-(3-amino-2,6-difluorobenzoyl)-1H-pyrrolo[2,3-b]pyridin-5-yl]phenyl}piperidin-4-yl)methyl]-2,6-diazaspiro[3.3]heptan-2-yl}-N-[(3S)-2,6-dioxopiperidin-3-yl]-2-fluorobenzamide]	> 500 nM		> 30 nM			
O=C1CCC(NC(=O)N2CCCc3c(C4CCN(CC5CCN(c6ccc(-c7cnc8[nH]cc(C(=O)c9c(F)ccc(NS(=O)(=O)N%10CC[C@@H](F)C%10)c9F)c8c7)cc6)CC5)CC4)ccnc32)C(=O)N1 (stereo partly drawn) [Compound 364, 5-(1-{[1-(4-{3-[2,6-difluoro-3-({[(3R)-3-fluoropyrrolidin-1-yl]sulfonyl}amino)benzoyl]-1H-pyrrolo[2,3-b]pyridin-5-yl}phenyl)piperidin-4-yl]methyl}piperidin-4-yl)-N-(2,6-dioxopiperidin-3-yl)-1,2,3,4-tetrahydro-1,8-naphthyridine-1-carboxamide]		35 to 70%		> 70%	5 to 50 nM	1 to 10 nM
